Results as given in ChEMBL document CHEMBL1201862, “PubChem BioAssay data set” (2004).
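All cell lines were grown in 96-well plates and treated with compound for 48 hours. GI50: concentration for 50% inhibition of growth.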 Active and inactive are the calls of the source. Rule as the data show it: active = GI50 up to about 1.1 µM and inactive = higher.

What was measured:
Assay in all cases: DTP human tumour cell line panel, 48 h
786-0 = test system: 786-0
A498 = test system: A498
EKVX = test system: EKVX
HCC 2998 = test system: HCC 2998
HCT-116 = test system: HCT-116
HT-29 = test system: HT-29
K562 = test system: K562
KM12 = test system: KM12
M14 = test system: M14
MCF7 = test system: MCF7
NCI-H522 = test system: NCI-H522
PC-3 = test system: PC-3
SF-295 = test system: SF-295
SK-MEL-28 = test system: SK-MEL-28
SK-MEL-2 = test system: SK-MEL-2
SK-OV-3 = test system: SK-OV-3
SN12C = test system: SN12C
SW-620 = test system: SW-620
OVCAR-8 = test system: OVCAR-8

Measured: GI50

Cc1ccccc1/N=N/c1ccc(N/N=C2/CCCNC2=O)c(C)c1
inactive: 786-0 > 100 µM | A498 > 100 µM | EKVX 88.5 µM | HCC 2998 > 100 µM | HCT-116 > 100 µM | HT-29 > 100 µM | K562 > 100 µM | KM12 > 100 µM | M14 > 100 µM | MCF7 64.1 µM | NCI-H522 31.2 µM | PC-3 > 100 µM | SF-295 > 100 µM | SK-MEL-28 > 100 µM | SK-MEL-2 > 100 µM | SK-OV-3 > 100 µM | SN12C > 100 µM | SW-620 > 100 µM

CCOC1OC(C)(C=C(C#N)C#N)CCC1C (configuration not stated)
inactive: 786-0 25.9 µM | A498 22.4 µM | EKVX 33.3 µM | HCC 2998 32.1 µM | HCT-116 29.9 µM | HT-29 27.6 µM | K562 16.8 µM | KM12 > 74 µM | M14 35.5 µM | MCF7 35.2 µM | NCI-H522 15.4 µM | OVCAR-8 27.7 µM | PC-3 49 µM | SF-295 > 67.5 µM | SK-MEL-28 47.2 µM | SK-MEL-2 > 100 µM | SK-OV-3 > 100 µM | SN12C 33.7 µM | SW-620 37.2 µM

C=CCN(c1cc(O)c2c(c(C)cn2S(=O)(=O)c2ccccc2)c1[N+](=O)[O-])S(C)(=O)=O
inactive: 786-0 > 100 µM | A498 74.1 µM | EKVX 76.9 µM | HCC 2998 > 100 µM | HCT-116 59.2 µM | HT-29 > 100 µM | K562 38.5 µM | KM12 > 100 µM | M14 > 100 µM | MCF7 > 100 µM | NCI-H522 65.9 µM | OVCAR-8 > 100 µM | PC-3 > 100 µM | SF-295 48.5 µM | SK-MEL-28 > 100 µM | SK-MEL-2 > 100 µM | SK-OV-3 > 100 µM | SN12C 78.9 µM | SW-620 > 100 µM

CCCCC(/C=C\COC1CCCCO1)=C/C(=O)OCC (configuration not stated)
inactive: 786-0 65.2 µM | A498 > 100 µM | EKVX 37 µM | HCC 2998 > 100 µM | HCT-116 28.6 µM | HT-29 38.4 µM | K562 45.2 µM | KM12 46.6 µM | M14 91.6 µM | MCF7 46.9 µM | NCI-H522 30.5 µM | OVCAR-8 94.4 µM | PC-3 44.9 µM | SF-295 44.4 µM | SK-MEL-28 > 100 µM | SK-MEL-2 > 100 µM | SK-OV-3 > 100 µM | SN12C 57.4 µM | SW-620 70.6 µM

O=C1C([P+](c2ccccc2)(c2ccccc2)c2ccccc2)=C([O-])C(=Cc2ccc(Cl)c(Cl)c2)C([O-])=C1[P+](c1ccccc1)(c1ccccc1)c1ccccc1
inactive: 786-0 2.14 µM | A498 15.1 µM | EKVX 2.47 µM | HCC 2998 2.93 µM | HCT-116 1.68 µM | HT-29 1.91 µM | K562 1.6 µM | KM12 2.01 µM | M14 2.38 µM | MCF7 1.46 µM | NCI-H522 1.8 µM | OVCAR-8 2.23 µM | PC-3 1.71 µM | SF-295 2.65 µM | SK-MEL-28 2.49 µM | SK-MEL-2 2.44 µM | SK-OV-3 1.93 µM | SN12C 2.43 µM | SW-620 2.17 µM

CC(C)OC(=O)[C@H]1ON2O[C@H](O[C@@H]3CCCC[C@H]3c3ccccc3)C([Si](C)(C)c3ccccc3)[C@H]3OC(=O)[C@@H]1C32 (some centres not stated)
inactive: 786-0 > 100 µM | A498 > 100 µM | EKVX > 100 µM | HCC 2998 > 100 µM | HCT-116 > 100 µM | HT-29 > 100 µM | K562 34 µM | KM12 > 100 µM | M14 > 100 µM | MCF7 30.1 µM | NCI-H522 81.3 µM | OVCAR-8 > 100 µM | PC-3 > 100 µM | SF-295 > 100 µM | SK-MEL-28 > 100 µM | SK-MEL-2 > 100 µM | SK-OV-3 > 100 µM | SN12C > 100 µM | SW-620 > 100 µM

C=Cc1ccccc1C1C(C(=O)OCC)=C(C)N=C2OC(C(=O)OC)C(=O)N21 (configuration not stated)
inactive: 786-0 > 100 µM | A498 > 100 µM | EKVX > 100 µM | HCC 2998 > 100 µM | HCT-116 > 100 µM | HT-29 > 100 µM | K562 > 100 µM | KM12 > 100 µM | M14 > 100 µM | MCF7 > 100 µM | NCI-H522 > 100 µM | OVCAR-8 > 100 µM | PC-3 > 100 µM | SF-295 > 100 µM | SK-MEL-28 > 100 µM | SK-MEL-2 > 100 µM | SK-OV-3 > 100 µM | SN12C > 100 µM | SW-620 > 100 µM
